pIC50: −log10 of the molar value. Where a name gives a salt, the structure may show the parent alone.
What follows are compounds tested on PMS1 (assay: Mini-gene reporter assay-PMS1). Conditions: Homo sapiens, HEK293, PMS1 mini-gene firefly luciferase reporter transiently transfected into HEK293 cells; read-out: PMS1 IC50.
Format: cell-based
Source text: Biological Activity of the Compounds of the Present Disclosure Mini-gene reporter assay-PMS1
Mini-gene reporter constructs for each target site can be constructed by first PCR amplifying the region-of-interest including the sequence of the alternatively skipped, sequences of the immediate upstream and downstream introns, and sequences of the immediate upstream and downstream exons. Then the 3′end of the amplified sequence can be ligated to a firefly luciferase reporter gene and cloned into the pcDNA3.1 vector backbone. The final reporter construct can be transiently transfected into HEK293 cells using Lipofectamine 3000 transfection reagents. Compounds that can induce the inclusion of the skipped exon in the reporter construct would increase the reporter firefly luciferase activity.
Test compounds may be diluted in duplicates and dispensed into an assay plate. Transient mini-gene reporter cell line stock is resuspended and dispensed into the assay plate. Assay plates are then centrifuged and incubated. A luciferase reagent (e.g. ONE-Glo firefly luciferase reagent from Promega®) may be added to the assay plate and the luminescence (RLU) signals recorded. PMS1 EC50 values may be determined by curve fitting in Levenberg-Marquardt algorithm.

SMILES | pIC50
CCOc1nc(N2CC[C@@H]3CNC[C@@H]3C2)ncc1C(=O)Nc1cn2cc(C)nc2c(C)n1 (racemic) [Compound 29] | < 5.52
CCOc1nc(N2CC[C@@H]3NCCC[C@@H]3C2)ncc1C(=O)Nc1cn2cc(C)nc2c(C)n1 (racemic) [Compound 31] | < 5.52
CCOc1nc(N2CCN[C@H]3CC[C@H]32)ncc1C(=O)Nc1cn2cc(C)nc2c(C)n1 (racemic) [Compound 101] | 6.00 to 6.30
CCOc1nc(N2C[C@H]3CNCC[C@H]3C2)ncc1C(=O)Nc1cn2cc(C)nc2c(C)n1 (racemic) [Compound 105] | > 6.30
CCOc1nc(N(C)[C@@H]2CNC[C@H]2O)ncc1C(=O)Nc1cc(F)c2nc(C)cn2c1 (racemic) [Compound 174] | 5.52 to 6.00
CCOc1nc(N2CCO[C@H]3CNC[C@H]32)ncc1C(=O)Nc1cc(F)c2nc(C)cn2c1 (racemic) [Compound 177] | 5.52 to 6.00
CCOc1nc(N2CC[C@@H]3CNC[C@@H]32)ncc1C(=O)Nc1cc(F)c2nc(C)cn2c1 (racemic) [Compound 209] | > 6.30
COc1nc(N2CCNCC2)ncc1C(=O)Nc1cc(F)c2nc(C)cn2c1 [Compound 1, N-(8-fluoro-2-methylimidazo[1,2-a]pyridin-6-yl)-4-methoxy-2-(piperazin-1-yl)pyrimidine-5-carboxamide, HCl] | 5.52 to 6.00
CCOc1nc(N2CCN[C@H](C)C2)ncc1C(=O)Nc1cc(F)c2nc(C)cn2c1 [Compound 3, 4-ethoxy-N-{8-fluoro-2-methylimidazo[1,2-a]pyridin-6-yl}-2-[(3R)-3-methylpiperazin-1-yl]pyrimidine-5-carboxamide] | 6.00 to 6.30
CCOc1nc(N2CCN3CCCC3C2)ncc1C(=O)Nc1cc(F)c2nc(C)cn2c1 (stereo not shown) [Compound 5, 4-ethoxy-N-{8-fluoro-2-methylimidazo[1,2-a]pyridin-6-yl}-2-{octahydropyrrolo[1,2-a]pyrazin-2-yl}pyrimidine-5-carboxamide] | 5.52 to 6.00
CCOc1nc(N2CCN(C)CC2)ncc1C(=O)Nc1cc(F)c2nc(C)cn2c1 [Compound 6, 4-ethoxy-N-{8-fluoro-2-methylimidazo[1,2-a]pyridin-6-yl}-2-(4-methylpiperazin-1-yl)pyrimidine-5-carboxamide] | 5.52 to 6.00
CCOc1nc(N2CCN[C@@H](C)C2)ncc1C(=O)Nc1cc(F)c2nc(C)cn2c1 [Compound 7, 4-ethoxy-N-{8-fluoro-2-methylimidazo[1,2-a]pyridin-6-yl}-2-[(3S)-3-methylpiperazin-1-yl]pyrimidine-5-carboxamide] | 6.00 to 6.30
CCOc1nc(N2CC3CNCC3C2)ncc1C(=O)Nc1cc(F)c2nc(C)cn2c1 (stereo not shown) [Compound 8, 4-ethoxy-N-{8-fluoro-2-methylimidazo[1,2-a]pyridin-6-yl}-2-{octahydropyrrolo[3,4-c]pyrrol-2-yl}pyrimidine-5-carboxamide] | > 6.30
CCOc1nc(N2CCNCC2)ncc1C(=O)Nc1cn2cc(C)nc2cn1 [Compound 9, 4-ethoxy-N-{2-methylimidazo[1,2-a]pyrazin-6-yl}-2-(piperazin-1-yl)pyrimidine-5-carboxamide] | 5.52 to 6.00
CCOc1nc(N2CCNC(C)(C)C2)ncc1C(=O)Nc1cn2cc(C)nc2cn1 [Compound 10, 2-(3,3-dimethylpiperazin-1-yl)-4-ethoxy-N-{2-methylimidazo[1,2-a]pyrazin-6-yl}pyrimidine-5-carboxamide] | < 5.52
CCOc1nc(N2CCNCC2)ncc1C(=O)Nc1cc(F)c2nc(C)oc2c1 [Compound 12, 4-ethoxy-N-(4-fluoro-2-methyl-1,3-benzoxazol-6-yl)-2-(piperazin-1-yl)pyrimidine-5-carboxamide] | 5.52 to 6.00
CCOc1nc(N2CCN[C@H](C)C2)ncc1C(=O)Nc1cc(F)c2nc(C)oc2c1 [Compound 13] | 6.00 to 6.30
CCOc1nc(N2CCCNCC2)ncc1C(=O)Nc1cc(F)c2nc(C)cn2c1 [Compound 15, 2-(1,4-diazepan-1-yl)-4-ethoxy-N-{8-fluoro-2-methylimidazo[1,2-a]pyridin-6-yl}pyrimidine-5-carboxamide] | > 6.30
CCOc1nc(N2CCNCC2)ncc1C(=O)Nc1cn2cc(C)nc2c(C)n1 [Compound 16, N-{2,8-dimethylimidazo[1,2-a]pyrazin-6-yl}-4-ethoxy-2-(piperazin-1-yl)pyrimidine-5-carboxamide] | < 5.52
CCOc1nc(N2CC3(CCNCC3)C2)ncc1C(=O)Nc1cn2cc(C)nc2c(C)n1 [Compound 17] | > 6.30

Further lines, results first:

pIC50 | SMILES
6.00 to 6.30 | CCOc1nc(N2CC[C@@H]3CNC[C@@H]32)ncc1C(=O)Nc1cn2cc(C)nc2c(C)n1 (racemic) [Compound 60]
5.52 to 6.00 | CCOc1nc(N2CC[C@@H]3NCC[C@@H]3C2)ncc1C(=O)Nc1cn2cc(C)nc2c(C)n1 (racemic) [Compound 90]
> 6.30 | CCOc1nc(N2C[C@H]3CNCC[C@H]32)ncc1C(=O)Nc1cn2cc(C)nc2c(C)n1 (racemic) [Compound 95]
> 6.30 | CCOc1nc(N2C[C@@H]3CNC[C@]3(C)C2)ncc1C(=O)Nc1cn2cc(C)nc2c(C)n1 (racemic) [Compound 98]
< 5.52 | CCOc1nc(N2CC3(CCNCC3)[C@H]3COC[C@H]32)ncc1C(=O)Nc1cc(F)c2nc(C)cn2c1 (racemic) [Compound 124]
> 6.30 | CCOc1nc(N2CC[C@@H]3NCCC[C@@H]3C2)ncc1C(=O)Nc1cc(F)c2nc(C)cn2c1 (racemic) [Compound 139]
6.00 to 6.30 | CCOc1nc(N2CC[C@H]3CN[C@H]3C2)ncc1C(=O)Nc1cc(F)c2nc(C)cn2c1 (racemic) [Compound 169]
> 6.30 | CCOc1nc(N2CCC[C@H]3NCC[C@H]32)ncc1C(=O)Nc1cc(F)c2nc(C)cn2c1 (racemic) [Compound 178]
> 6.30 | CCOc1nc(N2C[C@@H]3CNC[C@]3(C)C2)ncc1C(=O)Nc1cc(F)c2nc(C)cn2c1 (racemic) [Compound 179]
5.52 to 6.00 | CCOc1nc(N2CC[C@H]3CCN[C@H]3C2)ncc1C(=O)Nc1cc(F)c2nc(C)cn2c1 (racemic) [Compound 198]
> 6.30 | CCOc1nc(N2CC[C@@H]3NCC[C@@H]3C2)ncc1C(=O)Nc1cc(F)c2nc(C)cn2c1 (racemic) [Compound 199]
> 6.30 | CCOc1nc(N2C[C@H]3CNCC[C@H]32)ncc1C(=O)Nc1cc(F)c2nc(C)cn2c1 (racemic) [Compound 245]
> 6.30 | CCOc1nc(N2CC[C@H](NC)C2)ncc1C(=O)Nc1cc(F)c2nc(C)cn2c1 (single isomer, unassigned) [Compound 312, hydrochloride]
> 6.30 | CCOc1nc(N2CCNC(CC)C2)ncc1C(=O)Nc1cc(F)c2nc(C)cn2c1 (stereo not shown) [Compound 11, 4-ethoxy-2-(3-ethylpiperazin-1-yl)-N-{8-fluoro-2-methylimidazo[1,2-a]pyridin-6-yl}pyrimidine-5-carboxamide]
> 6.30 | CCOc1nc(N2CC3CNCC3C2)ncc1C(=O)Nc1cc(F)c2nc(C)oc2c1 (stereo not shown) [Compound 14, 4-ethoxy-N-(4-fluoro-2-methyl-1,3-benzoxazol-6-yl)-2-{octahydropyrrolo[3,4-c]pyrrol-2-yl}pyrimidine-5-carboxamide]
> 6.30 | CCOc1nc(N2CC3(CNC3)C2)ncc1C(=O)Nc1cn2cc(C)nc2c(C)n1 [Compound 18, 2-{2,6-diazaspiro[3.3]heptan-2-yl}-N-{2,8-dimethylimidazo[1,2-a]pyrazin-6-yl}-4-ethoxypyrimidine-5-carboxamide]

Same assay, conditions: Homo sapiens, HEK293, read-out: PMS1 IC50 (nM)

SMILES | IC50
CCOc1nc(N2CCNCC2)ncc1C(=O)Nc1cc(F)c2nc(C)cn2c1 [Compound 2, 4-ethoxy-N-{8-fluoro-2-methylimidazo[1,2-a]pyridin-6-yl}-2-(piperazin-1-yl)pyrimidine-5-carboxamide] | < 500 nM

Same assay, conditions: Homo sapiens; at 5 μM; PMS1 mini-gene firefly luciferase reporter in HEK293 cells; read-out: PMS1% Effect at 5 μM

SMILES | activation at 5 µM
CCOc1nc(N2CCO[C@H]3CNC[C@H]32)ncc1C(=O)Nc1cn2cc(C)nc2c(C)n1 (racemic) [Compound 93] | < 50%
CCOc1nc(N2CC[C@@H]3NCC(=O)N[C@@H]3C2)ncc1C(=O)Nc1cc(F)c2nc(C)cn2c1 (racemic) [Compound 170] | < 50%
CCOc1nc(N2CCNC(CC(F)F)C2)ncc1C(=O)Nc1cc(F)c2nc(C)cn2c1 (single isomer, unassigned) [Compound 309] | 50 to 75%
CCOc1nc(N2CC[C@@H](NC)C2)ncc1C(=O)Nc1cc(F)c2nc(C)cn2c1 (single isomer, unassigned) [Compound 311, hydrochloride] | > 75%
CCOc1nc(N2CCN[C@@H](C)C2)ncc1C(=O)Nc1cn2cc(C)nc2c(C)n1 [Compound 19, N-{2,8-dimethylimidazo[1,2-a]pyrazin-6-yl}-4-ethoxy-2-[(3S)-3-methylpiperazin-1-yl]pyrimidine-5-carboxamide] | 50 to 75%

Same assay, conditions: PMS1 mini-gene firefly luciferase reporter transiently transfected into HEK293 cells; hydrochloride; read-out: PMS1 IC50

SMILES | pIC50
CCOc1nc(N2C[C@@H](C)N[C@@H](C)C2)ncc1C(=O)Nc1cc(F)c2nc(C)cn2c1 [Compound 4, 2-[(3R,5S)-3,5-dimethylpiperazin-1-yl]-4-ethoxy-N-{8-fluoro-2-methylimidazo[1,2-a]pyridin-6-yl}pyrimidine-5-carboxamide hydrochloride] | 6.00 to 6.30

From patent US20250122192A1, “5-PYRIMIDINECARBOXAMIDE DERIVATIVES AND METHODS OF USING THE SAME” (Rgenta Therapeutics, Inc., priority 2021, published 2025)
